# Data from patent publication US20130190365A1, “Use of Deferiprone and Methods to Treat and/or Prevent Friedreich Ataxia Resulting from Intracellular Mishandling of Iron” (priority 2006, published 2013).
# What was measured:
# [1] = system: intracellular iron pools; details: macrophages, hepatocytes and cardiomyocyte cell lines; cited from earlier work
# [2] = 52-week twice daily oral toxicity study in non-iron-loaded cynomolgus monkeys; format: in vivo
# Experimental: As part of a larger study on the potential toxicity of iron chelators, we evaluated the toxicity of deferiprone in normal monkeys receiving 150 mg/kg/day (75 mg/kg twice daily) for 1 year.
# To determine the toxicity of deferiprone in non-iron-loaded cynomolgus monkeys following twice daily oral (gavage) administration for 52 consecutive weeks, and to evaluate the regression of any toxic effect during a 4-week treatment-free period.
# (§1) Groups of 4 male and 4 female monkeys (2 to 3 years old) were dosed by nasogastric intubation at (0.5% w/v aqueous carboxymethylcellulose vehicle) 75 mg/kg deferiprone twice daily (bid), with 6-8 hours between doses, for at least 364 days.
# (§2) Clinical signs, body weights and food intake were assessed at frequent intervals. Ophthalmological and cardiovascular examinations were carried out in Weeks 17, 30, 43, 56 and 60. Hematology, coagulation, clinical chemistry and urine parameters were measured at baseline and in Weeks 8, 16, 30, 41, 56 and 60. Blood samples were taken on the first day of dosing, and in Weeks 17 and 56 for assessment of the serum deferiprone time-concentration profile. A full necropsy was performed on each animal, selected organs weighed, and histopathological examination of abnormalities and selected tissues conducted.
# [3] = serum deferiprone time-concentration profile (HPLC) in the 52-week monkey study; format: in vivo, cynomolgus monkeys; details: monkeys, 75 mg/kg twice daily oral
# Experimental: as §1, §2
# Deferiprone was detectable (HPLC) from 0.5 h after dosing, and for up to 7 h.
# [4] = International Cooperative Ataxia Rating Score (ICARS), phase I-II open trial in Friedreich ataxia patients; format: in vivo, human; details: for ICARS oculomotor disorder (/6) / ICARS posture and gait disturbance: gait speed / ICARS posture and gait disturbance: spread feet / ICARS speech disorder (/8) / ICARS posture and gait disturbance: standing eyes open / ICARS posture and gait disturbance: walking / ICARS kinetic function (/29) / ICARS posture and gait disturbance 7 items (/34): after trial
# Excerpt: Ten adolescents (four males, six females aged 14 to 23 yrs) with a diagnosis of Friedreich ataxia, confirmed by detection of a trinucleotide-repeat expansion in the first intron of the frataxin gene, were studied. Patients received deferiprone (Ferriprox™, Apotex Inc., Toronto, Canada) orally, in two doses for 1-5 months. Three patients were included, sequentially, for a minimum period of two months at each dose. Patient enrollment was staggered by two-weeks to enable monitoring of response. In the absence of toxicity, and with evidence of efficacy in any of the first 3 patients, a second group of 3 patients would be included at the same dose for a total duration of 6 months. If there was an absence of both efficacy and toxicity, the second group of three patients would be administered a higher dose. If toxicity developed, the current dose would be suspended and the trial resumed with the next group of patients at a lower dose. The patients were on idebenone (10 mg/kg/day, in three doses) for at least two years prior to inclusion and were kept on the drug at the same dose for the duration of the trial. MRI examinations were done at inclusion and at 1, 2, 4 and 6 months. The protocol was promoted by Assistance Publique-Hopitaux de Paris and approved by the local ethical committee and registered at the National Health Authority (AFSSAPS) and at the International Protocol Registration System (www.clinicaltrials.gov). A written informed consent was obtained from patients and parents.
# (§3) The International Cooperative Ataxia Rating Score (ICARS) was used to assess the symptoms of ataxia before and after 1-5 months (Cano et al. International cooperative ataxia rating scale (ICARS): Appropriate for studies of Friedreich's ataxia? Mov Disord 2005; 20:1585-91). This scale has four subscales: posture and gait disturbance, kinetic functions, speech disorders and oculomotor disorders. Subscale scores are summed to give a total score ranging from 0 to 100. High scores indicated worse ataxia. The Perdue Pegboard test, which assesses speed of performance, delicate movements and manipulative dexterity, was included in the course of the study. This test assesses the ability of the participant to insert as many nails as possible into preset holes, linearly dug in a wooden board in a limited space of time (20 seconds with the two hands, separately and together). The tests were administered by the same investigator. Patients were monitored for neutropenia, agranulocytosis, musculoskeletal pains and zinc deficiency and had weekly blood counts, plasma iron, serum ferritin and transferrin concentration measurements, as well as assessments of renal and liver function.
# [5] = Perdue Pegboard test in Friedreich ataxia patients; format: in vivo, human; details: for Perdue pegboard (number of nails inserted with the two hands alone+together): after trial
# Excerpt: as §3
# [6] = patient eight, DFP 20 mg/kg, 3 mth, prior to trial 4
# [7] = patient five, DFP 20 mg/kg, 5 mth, prior to trial 3
# [8] = patient one, DFP 20 mg/kg, 4 mth, prior to trial 2
# [9] = patient one, DFP 20 mg/kg, 4 mth, prior to trial 3
# [10] = patient seven, DFP 20 mg/kg, 2 mth, prior to trial 2
# [11] = patient seven, DFP 20 mg/kg, 2 mth, prior to trial 3
# [12] = patient six, DFP 20 mg/kg, 2 mth, prior to trial 3
# [13] = patient three, DFP 30 mg/kg, 1 mth, prior to trial 2
# [14] = patient two, DFP 30 mg/kg, 1 mth, prior to trial 0
smiles,measurement,setting,value
CC(=O)N(O)CCCCCNC(=O)CCC(=O)N(O)CCCCCNC(=O)CCC(=O)N(O)CCCCCN [desferrioxamine],access to intracellular iron pools and chelation in cells,[1],slow
"Cc1c(O)c(=O)ccn1C [deferiprone, 3-hydroxy-1,2-dimethylpyridin-4-one]","deferiprone-related effects on body weight, food intake, ophthalmology, cardiac conduction, blood pressure, heart rate, hematology or urine composition","[2]; 75 mg/kg twice daily, 52 weeks",no deferiprone-related effects
same,macroscopic findings at necropsy,"[2]; 75 mg/kg twice daily, 52 weeks",No macroscopic findings related to deferiprone were found
same,microscopic findings (histopathology),"[2]; 75 mg/kg twice daily, 52 weeks",No microscopic findings in non-iron-loaded monkeys could be attributed to treatment with deferiprone
same,overall adverse effect,"[2]; oral, 75 mg/kg twice daily for 52 weeks",without significant adverse effect
same,peak concentration relative to thalassemia patients on 25 mg/kg three times daily,[3],about three times
same,change of ICARS scores,"[4]; 20 mg/kg/day, short period of the trial",mild changes of the ICARS scores
same,ICARS oculomotor disorder (/6),"[4]; patient eight, DFP 20 mg/kg, 3 mth, prior to trial 3",2
same,ICARS posture and gait disturbance: gait speed,[4]; [6],4
same,ICARS posture and gait disturbance: spread feet,[4]; [6],4
same,ICARS speech disorder (/8),[4]; [6],4
same,ICARS posture and gait disturbance: standing eyes open,"[4]; patient eight, DFP 20 mg/kg, 3 mth, prior to trial 6",6
same,ICARS posture and gait disturbance: walking,"[4]; patient eight, DFP 20 mg/kg, 3 mth, prior to trial 7",7
same,ICARS kinetic function (/29),"[4]; patient eight, DFP 20 mg/kg, 3 mth, prior to trial 21",21
same,ICARS posture and gait disturbance 7 items (/34),"[4]; patient eight, DFP 20 mg/kg, 3 mth, prior to trial 33",32
same,ICARS speech disorder (/8),"[4]; patient five, DFP 20 mg/kg, 5 mth, prior to trial 1",0
same,ICARS oculomotor disorder (/6),"[4]; patient five, DFP 20 mg/kg, 5 mth, prior to trial 2",2
same,ICARS posture and gait disturbance: gait speed,[4]; [7],3
same,ICARS posture and gait disturbance: spread feet,[4]; [7],2
same,ICARS posture and gait disturbance: standing eyes open,"[4]; patient five, DFP 20 mg/kg, 5 mth, prior to trial 4",4
same,ICARS posture and gait disturbance: walking,"[4]; patient five, DFP 20 mg/kg, 5 mth, prior to trial 7",7
same,ICARS kinetic function (/29),"[4]; patient five, DFP 20 mg/kg, 5 mth, prior to trial 8",7
same,ICARS posture and gait disturbance 7 items (/34),"[4]; patient five, DFP 20 mg/kg, 5 mth, prior to trial 28",27
same,ICARS posture and gait disturbance: gait speed,"[4]; patient one, DFP 20 mg/kg, 4 mth, prior to trial 1",1
same,ICARS oculomotor disorder (/6),[4]; [8],2
same,ICARS posture and gait disturbance: standing eyes open,[4]; [8],1
same,ICARS speech disorder (/8),[4]; [8],2
same,ICARS posture and gait disturbance: spread feet,[4]; [9],3
same,ICARS posture and gait disturbance: walking,[4]; [9],2
same,ICARS kinetic function (/29),"[4]; patient one, DFP 20 mg/kg, 4 mth, prior to trial 7",7
same,ICARS posture and gait disturbance 7 items (/34),"[4]; patient one, DFP 20 mg/kg, 4 mth, prior to trial 12",9
same,ICARS oculomotor disorder (/6),"[4]; patient seven, DFP 20 mg/kg, 2 mth, prior to trial 0",0
same,ICARS posture and gait disturbance: gait speed,"[4]; patient seven, DFP 20 mg/kg, 2 mth, prior to trial 1",1
same,ICARS posture and gait disturbance: spread feet,[4]; [10],2
same,ICARS speech disorder (/8),[4]; [10],2
same,ICARS posture and gait disturbance: standing eyes open,[4]; [11],1
same,ICARS posture and gait disturbance: walking,[4]; [11],3
same,ICARS kinetic function (/29),"[4]; patient seven, DFP 20 mg/kg, 2 mth, prior to trial 13",12
same,ICARS posture and gait disturbance 7 items (/34),"[4]; patient seven, DFP 20 mg/kg, 2 mth, prior to trial 16",13
same,ICARS oculomotor disorder (/6),"[4]; patient six, DFP 20 mg/kg, 2 mth, prior to trial 0",0
same,ICARS posture and gait disturbance: gait speed,"[4]; patient six, DFP 20 mg/kg, 2 mth, prior to trial 2",2
same,ICARS posture and gait disturbance: spread feet,[4]; [12],3
same,ICARS speech disorder (/8),[4]; [12],2
same,ICARS posture and gait disturbance: standing eyes open,"[4]; patient six, DFP 20 mg/kg, 2 mth, prior to trial 5",4
same,ICARS posture and gait disturbance: walking,"[4]; patient six, DFP 20 mg/kg, 2 mth, prior to trial 7",7
same,ICARS kinetic function (/29),"[4]; patient six, DFP 20 mg/kg, 2 mth, prior to trial 11",11
same,ICARS posture and gait disturbance 7 items (/34),"[4]; patient six, DFP 20 mg/kg, 2 mth, prior to trial 17",16
same,ICARS posture and gait disturbance: spread feet,"[4]; patient three, DFP 30 mg/kg, 1 mth, prior to trial 1",0
same,ICARS oculomotor disorder (/6),[4]; [13],2
same,ICARS posture and gait disturbance: gait speed,[4]; [13],2
same,ICARS posture and gait disturbance: standing eyes open,[4]; [13],1
same,ICARS posture and gait disturbance: walking,[4]; [13],2
same,ICARS speech disorder (/8),[4]; [13],2
same,ICARS kinetic function (/29),"[4]; patient three, DFP 30 mg/kg, 1 mth, prior to trial 8",8
same,ICARS posture and gait disturbance 7 items (/34),"[4]; patient three, DFP 30 mg/kg, 1 mth, prior to trial 11",8
same,ICARS oculomotor disorder (/6),[4]; [14],0
same,ICARS speech disorder (/8),[4]; [14],0
same,ICARS posture and gait disturbance: gait speed,"[4]; patient two, DFP 30 mg/kg, 1 mth, prior to trial 1",1
same,ICARS posture and gait disturbance: spread feet,"[4]; patient two, DFP 30 mg/kg, 1 mth, prior to trial 2",2
same,ICARS posture and gait disturbance: standing eyes open,"[4]; patient two, DFP 30 mg/kg, 1 mth, prior to trial 3",2
same,ICARS posture and gait disturbance: walking,"[4]; patient two, DFP 30 mg/kg, 1 mth, prior to trial 7",7
same,ICARS kinetic function (/29),"[4]; patient two, DFP 30 mg/kg, 1 mth, prior to trial 9",9
same,ICARS posture and gait disturbance 7 items (/34),"[4]; patient two, DFP 30 mg/kg, 1 mth, prior to trial 20",17
same,access to intracellular iron pools and chelation in cells,[1],readily enter most cells and efficiently reach the major intracellular sites of iron accumulation
same,speed of performances and dexterity (Perdue Pegboard),"[5]; 30 mg/kg/day group, before and 1-2 months after onset of the trial",an improvement of speed of performances and dexterity
same,Perdue pegboard (number of nails inserted with the two hands alone+together),"[5]; patient seven, DFP 20 mg/kg, 2 mth, prior to trial 37",29
same,Perdue pegboard (number of nails inserted with the two hands alone+together),"[5]; patient six, DFP 20 mg/kg, 2 mth, prior to trial 37",44
same,Perdue pegboard (number of nails inserted with the two hands alone+together),"[5]; patient two, DFP 30 mg/kg, 1 mth, prior to trial 52",39
